Where a name gives a salt, the structure may show the parent alone. Blank lines part the entries; values can stand above or below the molecule they belong to.
Key:
Type in all cases: physicochemical
[1] = Aerosol performance, Next Generation Impactor (NGI) with powder deaggregator and RS01 capsule piercing mechanism; details: pure drug (100% API)
Description: There are several inertia sampling apparatuses that can be used to assess aerosol performance of dry powder formulations. (<601> Aerosols, Nasal Sprays, Metered-Dose Inhalers, and Dry Powder Inhalers Monograph, in USP 29-NF 24 The United States Pharmacopoeia and The National Formulary: The Official Compendia of Standards. 2006, The United States Pharmacopeial Convention, Inc.: Rockville, Md. p. 2617-2636 (“USP<601>”).) These apparatus classify aerosol particles on the basis of the particles' aerodynamic diameter. Each stage of the impactor includes a single or series of nozzles with specific cutoff size. Particles are entrained into the apparatus. Those having sufficient inertia will impact on that particular stage collection plate, while smaller particles with insufficient inertia will remain entrained in the airstream and pass to the next stage where the process is repeated. The aerodynamic size distribution of API can be assessed by collecting the deposited API mass and the ED %, RF %, FPF % and MMAD (μm) can be calculated from the API deposition pattern. The emitted dose fraction (ED (%); Eq. 4) is determined as the percentage powder mass emitted from the initial dosing chamber/capsule relative to the total dose in capsules (nominal dose) (TD). Emitted dose (ED) includes the sum of the API mass […] deposited on the device stages. Fine particle fraction (FPF (%); Eq. 5) is expressed as a percentage of fine particle dose (FPD) below a certain aerodynamic cutoff size to ED. Respirable fraction (RF (%); Eq. 6) is defined as the percentage of FPD to total dose (TD).
Formulation aerosol performance tests were carried out using a powder deaggregator modified from that described in U.S. Patent Publication Nos. 2013/0340754 and 2013/0340747 combined with an off-the-shelf RS01 dry powder inhaler capsule piercing mechanism (Plastiape, IT) feeding method. […] The experiments were conducted at an airflow rate that gave a system pressure drop of 2 kPa (about 40 L/min, 4 L inhalation volume duration: 5.5 sec) or 4 kPa (about 60 L/min, 4 L inhalation volume duration: 3.9 sec).
Packaging: The blends were packaged into size 3 HPMC capsules. Nominal dose amounts of 3 mg were prepared for each formulation; 10 mg nominal doses were also prepared for pure drug VarBase and Var(HCl)2·xH2O formulations.
Methods: Two inertial sampling systems were used to assess aerosol performance: (1) a Next Generation Impactor® (“NGI”) (Copley Scientific, Shoreview, Minn.), and (2) a Twin Stage Liquid Impinge (“TSLI”) (Copley Scientific, Shoreview, Minn.). Aerosol performance of the VarHCl·xH2O formulation was assessed using the TSLI device, while the other formulations were all assessed using the NGI device. The NGI experiments were carried out using methods in general agreement with the USP<601>, and the TSLI experiments were carried using methods in general agreement with the British Pharmacopoeia, 2007, Vol. IV, Appendix XIIF. A291 Aerodynamic assessment of fine particles, fine particle dose and particle size distribution. The NGI experiments were run at a controlled airflow rate that gave a pressure drop of either 2 or 4 kPa across the device. Specifically, at Q=61.4 L/min with a delay time of 3.9 sec; and at Q=43.4 L/min with a delay time of 5.5 sec. Before the aerosol testing, the NGI collection plates were coated with suitable coating. Mass median aerodynamic diameter (MMAD) of aerosol particles distribution was determined based on a log-probability distribution (API particle size versus API deposition percentage) obtained from the NGI data. The TSLI experiments were run at Q=60 L/min, 4 sec to achieve ΔP≈4 kPa, with a cutoff size of 6.4 μm.

[2] = Particle size analysis of micronized APIs by laser diffraction; details: micronized (jet-milled), dispersed in mineral spirit
Procedure: Var(HCl)2·xH2O, VarBase, and VarHCl·3H2O were purchased and then micronized using a commercial dry jet-miller. The jet milling was achieved using typical jet milling conditions and a single milling process. As shown in Example 5, micronization leads to partial dehydration of VarHCl·3H2O. As such, following micronization and absent rehydration, the compound is designated as VarHCl·xH2O.
The APIs were dispersed in mineral spirit, and particle size analysis was performed by laser diffraction using a Microtrac×100 Particle Size Analyzer. Particle size span was calculated as
[formula] where Dv0.1, Dv0.5 and Dv0.9 are 10%, 50% and 90% of the volume size distributed below the respective values.

[3] = Dynamic vapor sorption (DVS) moisture sorption and desorption; details: 20° C.; for moisture sorption and desorption behavior: micronized, 0-80% P/Po
Procedure: DVS Analysis: No DVS results of these APIs have been previously reported. Moisture sorption and desorption behavior was assessed using a DVS-Advantage 1 (Surface Measurement Systems, Allentown, Pa.). Experimental parameters: sample % P/Po in a range of 0-80; 5% P/Po increment, equilibrium criteria, both sorption and desorption. Experiments conducted at 20° C.

[4] = Intrinsic stability testing (acid, base, oxidative degradation in solution) by HPLC; details: acidic, basic and oxidative conditions per ICH Guidance
Procedure: Method: VarHCl·3H2O, HPLC grade water, 36.5% HCl, NaOH pellets, 6% H2O2 were all purchased, and 1N HCl and 1N NaOH were prepared in house. Intrinsic stability testing was performed according to International Conference on Harmonization (ICH) Guidance for Industry Q1A(R2) Stability Testing of New Drug Substances and Products (November 2003, Rev. 2). Briefly, the compound was tested for acid hydrolysis (1N HCl) and base hydrolysis (1N NaOH) at r.t. for 48 hr and at 60° C. for 4 hr. Oxidation assessment (6% H2O2) was performed at r.t. for 48 hr. The stability of VarHCl·3H2O in solution was assessed using HPLC analysis as described above in Example 1, Section A.

[5] = 3 mg dose, dihydrochloride hydrate

ED(%) [1, 5]: 71.4%
FPF(ED)(%) [1, 5]: 63.6%
MMAD [1, 5]: 1.37 μm
RF(%) [1, 5]: 45.4%
Structure (SMILES): CCCc1nc(C)c2c(=O)[nH]c(-c3cc(S(=O)(=O)N4CCN(CC)CC4)ccc3OCC)nn12 [Var(HCl)2•xH2O (rehydrated), dihydrochloride hydrate]

DV50 [2]: 1.557 μm
Span [2]: 1.557
moisture sorption and desorption behavior [3]: no hydration occurred
ED(%) ([1]; 3 mg dose): 81.8%
FPF(ED)(%) ([1]; 3 mg dose): 56.0%
MMAD ([1]; 3 mg dose): 1.32 μm
RF(%) ([1]; 3 mg dose): 45.8%
ED(%) ([1]; 10 mg dose): 64.2%
FPF(ED)(%) ([1]; 10 mg dose): 37.2%
MMAD ([1]; 10 mg dose): 1.51 μm
RF(%) ([1]; 10 mg dose): 23.9%
Structure (SMILES): CCCc1nc(C)c2c(=O)[nH]c(-c3cc(S(=O)(=O)N4CCN(CC)CC4)ccc3OCC)nn12 [VarBase, 2-[2-ethoxy-5-(4-ethylpiperazin-1-yl)sulfonylphenyl]-5-methyl-7-propyl-1H-imidazo[5,1-i][1,2,4]triazin-4-one]

moisture sorption and desorption behavior ([3]; hydrochloride): highly hygroscopic
relative humidity at which a first water molecule bound to form a monohydrate ([3]; sorption phase): 5%
Structure (SMILES): CCCc1nc(C)c2c(=O)[nH]c(-c3cc(S(=O)(=O)N4CCN(CC)CC4)ccc3OCC)nn12 [VarHCl, vardenafil hydrochloride]

relative humidity below which water loss occurred ([3]; desorption phase): lower than 15%
humidity range in which the trihydrate form is stable / maintained ([3]; desorption phase, hydrochloride trihydrate): 10-80 % RH
relative humidity up to which integrity is maintained (not reaching deliquescence) ([3]; sorption phase): up to 80 % RH
Structure (SMILES): CCCc1nc(C)c2c(=O)[nH]c(-c3cc(S(=O)(=O)N4CCN(CC)CC4)ccc3OCC)nn12 [VarHCl·3H2O, vardenafil hydrochloride trihydrate]
extent of degradation [4]: significant in basic and oxidative conditions

Reference: patent publication US11806314B2, “PDE5 inhibitor powder formulations and methods relating thereto” (Respira Therapeutics, Inc., priority 2013, dated 2023)
